Assay results as given in ChEMBL document CHEMBL1152463 (Antimicrob Agents Chemother, 2008).
≈ marks a conversion by molar mass, not a printed value. Calls of active or inactive are those of the source. The rule behind the calls is not given here.

How the values were obtained:
Leishmania donovani [1] = assay: Antileishmanial activity against Leishmania donovani MHOH/IN/1983/AD83 promastigotes assessed as viability after 2 hrs by MTT assay; assay type: functional, organism-based; conditions: MHOH/IN/1983/AD83, 2 h
Leishmania donovani [2] = assay: Antileishmanial activity against Leishmania donovani MHOH/IN/1983/AD83 promastigotes assessed as cell killing at 30 ug/mL after 2 hrs by MTT assay relative to control; assay type: functional
Leishmania donovani [3] = assay: Antileishmanial activity against Leishmania donovani MHOH/IN/1983/AD83 promastigotes assessed as growth inhibition after 3 days by MTT assay; assay type: functional, organism-based; conditions: MHOH/IN/1983/AD83, 72 h
Leishmania donovani [4] = assay: Antileishmanial activity against Leishmania donovani MHOH/IN/1983/AD83 amastigotes infected in BALB/c mouse peritoneal macrophage assessed as cell killing at 15 ug/mL treated 6 hrs after infection measured after 48 hrs using Giemsa staining relative to control; assay type: functional
Leishmania donovani [5] = assay: Antileishmanial activity against Leishmania donovani MHOH/IN/1983/AD83 amastigotes infected in BALB/c mouse peritoneal macrophage at 3 ug/mL treated 6 hrs after infection measured after 48 hrs using Giemsa staining relative to control; assay type: functional
Leishmania donovani [6] = assay: Antileishmanial activity against Leishmania donovani MHOH/IN/1983/AD83 amastigotes infected in BALB/c mouse peritoneal macrophage treated 6 hrs after infection measured after 48 hrs using Giemsa staining relative to control; assay type: functional, organism-based
[7] = Toxicity in BALB/c mouse peritoneal macrophage assessed as toxic dose; assay type: cell-based; conditions: peritoneal macrophage cell
Leishmania donovani [8] = assay: Antileishmanial activity against Leishmania donovani MHOH/IN/1983/AD83 promastigotes assessed as increase in caspase 3 like activation in parasite cytosol at 3 to 30 ug/mL after 2 hrs by spectrofluorimetric analysis; assay type: functional, organism-based
Leishmania donovani [9] = assay: Antileishmanial activity against Leishmania donovani MHOH/IN/1983/AD83 promastigotes assessed as inhibition of calcium uptake; assay type: functional, organism-based
Mus musculus [10] = assay: Toxicity in BALB/c mouse at 10 mg/kg, po; assay type: organism-based; design: dose 10 mg/kg, route oral; conditions: in vivo
Mus musculus [11] = assay: Toxicity in BALB/c mouse assessed as liver function at 10 mg/kg, po; assay type: organism-based; design: dose 10 mg/kg, route oral; conditions: in vivo
Mus musculus [12] = assay: Toxicity in BALB/c mouse assessed as kidney function at 10 mg/kg, po; assay type: organism-based; design: dose 10 mg/kg, route oral; conditions: in vivo
Mus musculus [13] = assay: Toxicity in BALB/c mouse assessed as heart function at 10 mg/kg, po; assay type: organism-based; design: dose 10 mg/kg, route oral; conditions: in vivo
Leishmania donovani [14] = assay: Antileishmanial activity against Leishmania donovani MHOH/IN/1983/AD83 promastigotes assessed as decrease in rate of oxygen consumption at 30 ug/mL after 2 hrs by polarographically with Clark electrode; assay type: functional; design: scale not given: the % may be the effect or the level left

Structure (SMILES) | EC50 (Leishmania donovani [1]) [µg/mL] | Activity (Leishmania donovani [2]) [%] | IC50 (Leishmania donovani [3]) [µg/mL] | Activity (Leishmania donovani [4]) [%] | Activity (Leishmania donovani [5]) [%] | Activity (Leishmania donovani [6]) | IC50 (Leishmania donovani [6]) [µg/mL] | Activity [7] [µg/mL] | Activity (Leishmania donovani [8]) | Activity (Leishmania donovani [9]) | Activity (Mus musculus [10]) | Activity (Mus musculus [11]) | Activity (Mus musculus [12]) | Activity (Mus musculus [13]) | Activity (Leishmania donovani [14]) [%]
CCOC(=O)C1=C(C)NC(C)=C(C(=O)OCC)C1c1ccccc1/C=C/C(=O)OC(C)(C)C [LACIDIPINE] | 2.5 (≈ 5.49 µM) | 90.5 | 1.45 (≈ 3.18 µM) | 85.66 | >50 | Dose-dependent effect | 2.8 (≈ 6.15 µM) | 150 | Active | Active | Non-toxic | Non-toxic | Non-toxic | Non-toxic | 78
CCOC(=O)C1=C(COCCN)NC(C)=C(C(=O)OC)C1c1ccccc1Cl (stereo unspecified) [AMLODIPINE] | 2 (≈ 4.89 µM) | 98.76 | 0.085 (≈ 0.208 µM) | 96.39 | >50 | Dose-dependent effect | 2.1 (≈ 5.14 µM) | > 100 | Active | Active | Non-toxic | Non-toxic | Non-toxic | Non-toxic | –
COc1ccc([C@@H]2Sc3ccccc3N(CCN(C)C)C(=O)[C@@H]2OC(C)=O)cc1 | – | – | – | – | – | – | – | – | – | Active | – | – | – | – | –
COc1ccc(CCN(C)CCCC(C#N)(c2ccc(OC)c(OC)c2)C(C)C)cc1OC (stereo unspecified) | – | – | – | – | – | – | – | – | – | Active | – | – | – | – | –
